The subject of one assay is NCI-H82 cell. As to the kind of experiment: Cell viability, Promega CellTiter-Glo, NCI-H82 cell. It is filed as cell-based. Particulars: Homo sapiens, NCI-H82; read-out: IC50 of cell viability inhibition. As to the method:
Cell viability was detected by using the Promega CellTiter-Glo kit, the kit reflected cell viability by directly measuring intracellular ATP content. […] Daoy cell and NCI-H82 cell were cultured in DMEM containing 10% FBS (plus p/s).

For a further assay, the system named is GB-1. The assay is described as follows: Cell viability CellTiter-Glo, GB-1. It is filed as cell-based. Particulars: Homo sapiens; GB-1, brain cancer. On the procedure:
Cell viability was measured by using the Promega CellTiter-Glo kit, the kit reflected cell viability by directly measuring intracellular ATP content. Different cancer cells were cultured in culture medium, and the 50% inhibitory concentration IC50 of the compound SJ2858 was measured by Promega CellTiter-Glo kit. The name source and culture condition of each tumor cell line were as follows:
Cell line GB-1 (JCRB, No. IFO50489) was cultured in DMEM medium containing 10% fetal bovine serum (+P/S);
(Cellular ATP, detected with luciferase, serves as a proxy for viable cell number.)

As usually defined, the IC50 is the point on the concentration scale where inhibition reaches its midpoint.

With `O=c1cc(-c2ccccc2)oc2cc(O)c(O)c(O)c12` [Compound SJ2858, baicalein], the IC50 with NCI-H82 cell came out at 15.6 µM; in the assay with GB-1, 12.4 µM.

These data come from patent US20230098254A1, “SCUTELLARIAE RADIX COMPOUNDS AND USE THEREOF FOR INHIBITING OXIDATIVE PHOSPHORYLATION PATHWAY OF MITOCHONDRIA” (priority 2020, published 2023).
